Here are results for eight compounds from ChEMBL document CHEMBL1212795, “Transferable quinolone resistance in Vibrio cholerae” (2010).

By MIC is commonly meant the least concentration at which growth counts as inhibited. Low readings indicate inhibition by little substance, high ones a need for much substance.

In experiment [1] the test system is Escherichia coli. Kind of experiment: Antibacterial activity against azide-resistant Escherichia coli J53 SXT1 transconjugant with qnrVC3 gene expressing Vibrio cholerae 59 strain. It is filed as functional.
Experiment [2] deals with Escherichia coli. Kind of experiment: Antibacterial activity against azide-resistant Escherichia coli J53 TET2 transconjugant with qnrVC3 gene expressing Vibrio cholerae 59 strain.
In experiment [3] the test system is Escherichia coli. Kind of experiment: Antibacterial activity against azide-resistant Escherichia coli J53 SXT2 transconjugant with qnrVC3 gene expressing Vibrio cholerae 59 strain.
Experiment [4] concerns Escherichia coli. Kind of experiment: Antibacterial activity against azide-resistant Escherichia coli J53 TET1 transconjugant with qnrVC3 gene expressing Vibrio cholerae 59 strain. It is filed as functional.
Experiment [5] relates to Escherichia coli. Kind of experiment: Antibacterial activity against azide-resistant Escherichia coli J53 containing plasmid pQE60. It is filed as functional.
The subject of experiment [6] is Escherichia coli. Kind of experiment: Antibacterial activity against azide resistant Escherichia coli J53 transformed with pQE60-qnrVC3 gene Vibrio cholerae 59 strain. Type of experiment: functional.
Experiment [7] concerns Escherichia coli. Kind of experiment: Antibacterial activity against azide-resistant Escherichia coli J53 SXT13-1 transconjugant with qnrVC3 gene expressing Vibrio cholerae 13 strain. Type of experiment: functional.

≈ marks a conversion by molar mass, not a printed value.

As for `O=C(O)c1cn(C2CC2)c2cc(N3CCNCC3)c(F)cc2c1=O` [CIPROFLOXACIN], the MIC with Escherichia coli [1] was 0.047 µg/mL (≈ 0.142 µM); in the experiment with Escherichia coli [2] it was 0.064 µg/mL (≈ 0.193 µM).

As to `CCn1cc(C(=O)O)c(=O)c2ccc(C)nc21` [NALIDIXIC ACID], the MIC against Escherichia coli [1] came to 3 µg/mL (≈ 12.9 µM); in the experiment on Escherichia coli [3], 3 µg/mL (≈ 12.9 µM); with Escherichia coli [4], 4 µg/mL (≈ 17.2 µM); with Escherichia coli [2], 4 µg/mL (≈ 17.2 µM).

With `C[C@H]1COc2c(N3CCN(C)CC3)c(F)cc3c(=O)c(C(=O)O)cn1c23.C[C@H]1COc2c(N3CCN(C)CC3)c(F)cc3c(=O)c(C(=O)O)cn1c23.O` [LEVOFLOXACIN], the MIC in the experiment on Escherichia coli [1] was 0.19 µg/mL; in the experiment on Escherichia coli [3], 0.032 µg/mL; in the experiment on Escherichia coli [4], 0.032 µg/mL; in the experiment on Escherichia coli [2], 0.125 µg/mL; against Escherichia coli [5], 0.032 µg/mL; against Escherichia coli [6], 0.19 µg/mL.

`COc1cc(Cc2cnc(N)nc2N)cc(OC)c1OC` [TRIMETHOPRIM]: the MIC with Escherichia coli [1], against Escherichia coli [3], against Escherichia coli [4] and with Escherichia coli [2] was > 32 µg/mL in each case.

Regarding `CN[C@@H]1[C@H](O[C@H]2[C@H](O[C@H]3[C@H](O)[C@@H](O)[C@H](N=C(N)N)[C@@H](O)[C@@H]3N=C(N)N)O[C@@H](C)[C@]2(O)C=O)O[C@@H](CO)[C@H](O)[C@H]1O` [STREPTOMYCIN], the minimal inhibitory concentration (MIC) in the experiment with Escherichia coli [1], against Escherichia coli [3], in the experiment on Escherichia coli [4] and in the experiment with Escherichia coli [2] was > 192 µg/mL in each case.

On to `CC1(C)S[C@@H]2[C@H](NC(=O)[C@H](N)c3ccccc3)C(=O)N2[C@H]1C(=O)O` [AMPICILLIN], for which the MIC was determined as 4 µg/mL (≈ 11.4 µM) in the experiment on Escherichia coli [1], 4 µg/mL (≈ 11.4 µM) in the experiment with Escherichia coli [3], 6 µg/mL (≈ 17.2 µM) with Escherichia coli [4] and 4 µg/mL (≈ 11.4 µM) with Escherichia coli [2].

`CN(C)[C@@H]1C(O)=C(C(N)=O)C(=O)[C@@]2(O)C(O)=C3C(=O)c4c(O)cccc4[C@@](C)(O)[C@H]3C[C@@H]12` [TETRACYCLINE]: the MIC with Escherichia coli [1] came out at 64 µg/mL (≈ 144 µM); against Escherichia coli [3], 64 µg/mL (≈ 144 µM); against Escherichia coli [4], 64 µg/mL (≈ 144 µM); with Escherichia coli [2] it was 64 µg/mL (≈ 144 µM); against Escherichia coli [7] it was 1.5 µg/mL (≈ 3.38 µM).

For the compound GENTAMICIN, the MIC in the experiment with Escherichia coli [1] and against Escherichia coli [4] was 0.75 µg/mL each time.
